Here are results for one molecule from patent publication US20250084036A1, “COMPOUND, ALDEHYDE DEHYDROGENASE 2 ACTIVATOR, PHARMACEUTICAL COMPOSITION, AND THERAPEUTIC AND/OR PROPHYLACTIC DRUG” (Alchemedicine, Inc., priority 2022, published 2025).

The subject of data set [1] is pain induced by carrageenan, C57BL/6J mice. Put plainly: Test Example 5: Suppression effect on pain induced by carrageenan (von Frey escape score). Format: in vivo, mouse. Conditions: mean ± SE, n=8. As to the method:
This experiment was carried out with reference to Science Translational Medicine 6, 251ra118 (2014). Animals used were 7-week-old male C57BL/6J mice (The Jackson Laboratory Japan, Inc.). To induce mechanical allodynia to a sole part, carrageenan was subcutaneously administered to the sole of the left hind limb of each mouse. The escape response against mechanical stimulation 180 minutes after the induction was measured by using a von Frey filament with bending force (0.16 grams) to the sole surface of the left hind limb in the ascending direction. The mouse was stimulated in the vertical direction for 6 seconds until the filament bent, and the escape response of the mouse was rated with three-grade scoring (0: no response or startle response (displacing the foot without ascending), 1: ascending the foot, 2: licking or shaking the foot). Stimulation was performed 10 times, and the total value of 10 scores (escape score) was calculated.
The compound (Example 3) was dissolved in DMSO/PEG400 (volume ratio: 1:1), and 2, 6, or 20 mg/kg (no compound for a Vehicle group) of the compound was subcutaneously administered to the back of the neck three times in total at the same dose: 15 minutes before injection of carrageenan, 30 minutes after injection of carrageenan, and 150 minutes after injection of carrageenan, each at a dose of 5 mL/kg in liquid volume. A 1.5% carrageenan solution was prepared with physiological saline, and subcutaneously administered to the sole of the left hind limb at 7 μL/body.
In significance test, multiple comparison by the Steel's test was carried out for comparison between the Vehicle group and Example 3 group, where the significance level was set to 5%, and calculation was separately performed for lower than 5% (p<0.05) and for lower than 1% (p<0.01). The commercially available statistical program SAS SYSTEM (SAS Institute Japan Ltd.) was used for the significance test.

Data set [2] is described as follows: Test Example 2: Metabolic stability with mouse hepatic microsomes. Also: tested at 0.99 µM. The class given is in vitro ADME. Conditions: after 30 minutes, 37° C., NADPH. As to the method:
Metabolic stability in mouse hepatic microsomes was evaluated with the following method.
• (1) Mouse hepatic microsomes: 20 mg/mL • (2) Test compound: 1.1 mM DMSO solution • (3) Potassium phosphate buffer solution: 66.7 mM (pH 7.4) • (4) NADPH solution: 10 mM in potassium phosphate buffer solution • (5) Quenching solution: 0.5% formic acid-acetonitrile solution with warfarin as internal standard substance
Into a propylene tube, 971.5 μL of the potassium phosphate buffer solution and 27.5 μL of the mouse hepatic microsomes were put, and suspended. Thereto, 1 μL of a test compound was added, and 180 μL was taken from this mixture and transferred into another tube. The mixture was preincubated at 37° C. for 5 minutes, and 20 μL of the NADPH solution (for the case with an incubation time of 30 minutes) or 20 μL of the potassium phosphate buffer solution (for the case with an incubation time of 0 minutes) was then added thereto. After incubation, 200 μL of the quenching solution was added to terminate the reaction. Subsequently, centrifugation was performed at 3220×g for 20 minutes, and the concentration of the unchanged form of the test compound in 200 μL of the supernatant was measured with LC-MS/MS. On the basis of the peak area obtained for the unchanged form, the residual rate (%) of the unchanged form was calculated as that for the case with an incubation time of 0 minutes was assumed as 100%.

The target of data set [3] is T1, human recombinant ALDH2 enzyme (Homo sapiens, UniProt P05091).
T1 construct: purchased Abcam ab87415
T1 sequence (P05091 18-517): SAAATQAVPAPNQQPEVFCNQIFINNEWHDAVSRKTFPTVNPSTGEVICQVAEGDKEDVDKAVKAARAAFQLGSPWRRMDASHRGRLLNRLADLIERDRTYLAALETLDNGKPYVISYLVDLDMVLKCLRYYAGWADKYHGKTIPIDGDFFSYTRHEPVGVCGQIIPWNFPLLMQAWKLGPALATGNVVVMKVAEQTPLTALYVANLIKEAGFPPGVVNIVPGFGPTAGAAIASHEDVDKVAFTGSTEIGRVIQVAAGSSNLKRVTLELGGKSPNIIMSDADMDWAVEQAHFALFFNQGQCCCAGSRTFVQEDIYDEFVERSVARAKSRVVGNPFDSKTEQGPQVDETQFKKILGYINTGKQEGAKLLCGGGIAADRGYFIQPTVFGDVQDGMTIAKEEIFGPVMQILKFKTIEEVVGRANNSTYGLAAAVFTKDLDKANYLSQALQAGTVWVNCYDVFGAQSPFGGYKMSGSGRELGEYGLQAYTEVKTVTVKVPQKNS
The data set can be described thus: Test Example 1-1: ALDH2 activation effect (acetaldehyde oxidation rate, PicoProbe kit). Format: biochemical. To be noted: ALDH2 2 μg/mL, 180 min measurement. On the procedure: The activation effect of each test compound on the acetaldehyde oxidation rate of ALDH2 was measured with the following method. A test was conducted by using a commercially available PicoProbe™ Aldehyde dehydrogenase Activity Assay Kit (manufactured by BioVision Inc.) with reference to an instruction attached to the product under the following conditions. To each well of a 384-well plate, the following (1) to (3) were sequentially added with a pipette: • (1) 10 μL of solution obtained by dissolving and diluting a human recombinant ALDH2 enzyme (manufactured by Abcam, product number: ab87415) with ALDH assay Buffer (final concentration: 2 μg/mL); • (2) 10 μL of 30 μM or 90 μM test compound solution (with 3% DMSO) prepared by using ALDH assay Buffer; and • (3) 10 μL of Reaction mix composed with ratio of […] of ALDH assay Buffer, 0.6 μL of PicoProbe, 0.3 μL of Substrate Mix, and 1.5 μL of Acetaldehyde.
Before addition of (3), incubation was performed at room temperature for 5 minutes. After addition of (3), fluorescence intensity was measured at room temperature every 2.5 minutes over a period of 180 minutes by using an EnSight (manufactured by PerkinElmer Inc.) to determine the oxidation rate. Wavelengths of 535 nm and 587 nm were used for fluorescence intensities of excitation and emission, respectively.

Data set [4] can be described thus: Test Example 3: Metabolic stability with human hepatic microsomes. The class given is in vitro ADME. To be noted: human hepatic microsomes 0.1 mg protein/mL, 0.1 μmol/L test compound, after 30 minutes, 37° C. As to the method: For the compounds of Examples 1 to 9, which had been confirmed to have stability in the mouse hepatic microsome test, metabolic stability with human hepatic microsomes was measured. The specific method is as follows. • (1) Fifty microliter-portions were taken from 0.2 μmol/L test compound diluted with β-NADPH solution. • (2) Fifty microliters of 0.2 mg protein/mL human hepatic microsome solution was added to each (except for a sample with a reaction time of 0 minutes). • (3) Incubation was performed with shaking at 37° C. for 30 minutes (concentration in reaction sample: 0.1 μmol/L test compound, 0.1 mg protein/mL human hepatic microsome) • (4) After incubation, 400 μL of methanol was added to terminate the reaction. • (5) To the sample with a reaction time of 0 minutes, 50 μL of 0.2 mg protein/mL hepatic microsome solution was added. • (6) Each of the samples from (4) and (5) was left to stand at −20° C. for 30 minutes or longer, and then centrifuged at 4° C. and 3,000 rpm for approximately 10 minutes. • (7) The supernatant was subjected to measurement with LC/MS/MS, and, on the basis of the peak area obtained for the unchanged form, the residual rate (%) of the unchanged form was calculated as that for the case with an incubation time of 0 minutes was assumed as 100%.

Structures are written as SMILES.

In the case of `COc1ncc(CNC(=O)c2cc(-c3ncccc3CO)ccc2F)cc1F` [Example 3, 2-Fluoro-N-((5-fluoro-6-methoxypyridin-3-yl)methyl)-5-(3-(hydroxymethyl)pyridin-2-yl)benzamide], the Pain-related total score in data set [1] (2 mg/kg s.c. three times, 180 min after induction with carrageenan, p<0.01 vs Vehicle (9.4 ± 0.5)) was found to be 5.3 ± 0.3; in data set [1] (2 mg/kg s.c. three times, Pre (before induction)), 1.8 ± 0.5; in data set [1] (6 mg/kg s.c. three times, 180 min after induction with carrageenan, p<0.01 vs Vehicle (9.4 ± 0.5)) it was 4.6 ± 0.3; in data set [1] (6 mg/kg s.c. three times, Pre (before induction)), 1.8 ± 0.5; in data set [1] (20 mg/kg s.c. three times, 180 min after induction with carrageenan, p<0.01 vs Vehicle (9.4 ± 0.5)), 3.9 ± 0.3; in data set [1] (20 mg/kg s.c. three times, Pre (before induction)), 1.8 ± 0.4. Further, the “Residual rate (%) of unchanged form” value in data set [2] and in data set [4] was 93% in each case. Moreover, the “acetaldehyde oxidation rate (no test compound = 100%)” value in data set [3] (test compound 10 μM) turned out to be 188%; in data set [3] (test compound 30 μM), 226%.
